In patent publication US8247211B2, “Glycopeptide antibiotics” (American Cyanamid Company, priority 2001, dated 2012):
≈ marks a conversion by molar mass, not a printed value.

Columns and labels:
Assay in all cases: In vitro antibacterial evaluation: minimum inhibitory concentration (MIC), broth dilution method
Format in all cases: cell-based
[1] = system: Enterococcus sp.; settings: 18 hours at 35° C.
How it was run: (§1)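 NCCLS M7-A2 broth dilution; Muller-Hinton II […]; 5×10^5 CFU/mL; 64-0.06 μg/mL. MIC = lowest concentration with no growth.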

[2] = system: Escherichia coli; settings: 18 hours at 35° C.
How it was run: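 Susceptibility determined by NCCLS-recommended broth dilution (M7-A2), Muller-Hinton II […]. Concentration span 64-0.06 μg/mL, inoculum 5×10^5 CFU/mL. Isolates include strains resistant to methicillin, penicillin and/or vancomycin.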

[3] = system: Staphylococcus sp.
How it was run: as §1

[4] = system: Streptococcus sp.; settings: 18 hours at 35° C.
How it was run: as §1

[5] = Enterococcus faecalis (ATCC 29212)
[6] = Enterococcus faecalis (GC 2242)
[7] = Enterococcus faecalis (GC 4552)
[8] = Enterococcus faecalis (GC 4553)
[9] = broth dilution, inoculum 5×10^5 CFU/mL
[10] = Streptococcus agalactiae (GC 4564)
[11] = Streptococcus pneumoniae (GC 4565)

Compound: CC(c1ccccc1)C1NC(=O)CNC(=O)C(CO)NC(=O)C(C(O)C2CN(c3nc4ccccc4o3)C(=N)N2C2OC(CO)C(O)C(O)C2O)NC(=O)C(C(O)C2CNC(=Nc3nc4ccccc4o3)N2)NC(=O)C(Cc2ccc(OC3OC(CO)C(OC4OC5COC6(OC5C(O)C4O)C4CC5CC(C4)CC6C5)C(O)C3O)cc2)NC1=O (stereo not drawn) [Example 227, Di-N-(2-(1,3-benzoxazolyl)-cyclo[glycyl-β-methylphenylalanyl-O-[4-O-[4,6-O-(2-adamantylidene)hexopyranosyl]hexopyranosyl]tyrosyl-3-[2-iminoimidazolidin-4-yl]seryl-3-β-hexopyranosyl-2-iminoimidazolidin-4-yl]serylseryl]]
- MIC Enterococcus avium (GC 4558) ([1]; Enterococcus avium (GC 4558)): 8 µg/mL (≈ 4.81 µM)
- MIC Enterococcus faecalis (ATCC 29212) [1, 5]: 64 µg/mL (≈ 38.5 µM)
- MIC Enterococcus faecalis (GC 2242) [1, 6]: 64 µg/mL (≈ 38.5 µM)
- MIC Enterococcus faecalis (GC 2691) ([1]; Enterococcus faecalis (GC 2691)): 64 µg/mL (≈ 38.5 µM)
- MIC Enterococcus faecalis (GC 4552) [1, 7]: 64 µg/mL (≈ 38.5 µM)
- MIC Enterococcus faecalis (GC 4553) [1, 8]: 8 µg/mL (≈ 4.81 µM)
- MIC Enterococcus faecalis (GC 6189) ([1]; Enterococcus faecalis (GC 6189)): 64 µg/mL (≈ 38.5 µM)
- MIC Enterococcus faecium (GC 2243) ([1]; Enterococcus faecium (GC 2243)): 32 µg/mL (≈ 19.3 µM)
- MIC Enterococcus faecium (GC 4556) ([1]; Enterococcus faecium (GC 4556)): 64 µg/mL (≈ 38.5 µM)
- MIC Enterococcus faecium (GC 4557) ([1]; Enterococcus faecium (GC 4557)): 8 µg/mL (≈ 4.81 µM)
- MIC Enterococcus avium (GC 4558) [1, 9]: 8 µg/mL (≈ 4.81 µM)
- MIC Enterococcus faecalis (ATCC 29212) [1, 9]: 64 µg/mL (≈ 38.5 µM)
- MIC Enterococcus faecalis (GC 2242) [1, 9]: 64 µg/mL (≈ 38.5 µM)
- MIC Enterococcus faecalis (GC 2691) [1, 9]: 64 µg/mL (≈ 38.5 µM)
- MIC Enterococcus faecalis (GC 4552) [1, 9]: 64 µg/mL (≈ 38.5 µM)
- MIC Enterococcus faecalis (GC 4553) [1, 9]: 8 µg/mL (≈ 4.81 µM)
- MIC Enterococcus faecalis (GC 6189) [1, 9]: 64 µg/mL (≈ 38.5 µM)
- MIC Enterococcus faecium (GC 2243) [1, 9]: 32 µg/mL (≈ 19.3 µM)
- MIC Enterococcus faecium (GC 4556) [1, 9]: 64 µg/mL (≈ 38.5 µM)
- MIC Enterococcus faecium (GC 4557) [1, 9]: 8 µg/mL (≈ 4.81 µM)
- MIC Escherichia coli (GC 4560) [2]: 8 µg/mL (≈ 4.81 µM)
- MIC Staphylococcus haemolyticus (GC 4546) ([3]; strain GC 4546): 64 µg/mL (≈ 38.5 µM)
- MIC Coagulase Negative Staphylococcus (GC 4547) ([3]; strain GC 4547): 32 µg/mL (≈ 19.3 µM)
- MIC Coagulase Negative Staphylococcus (GC 4548) ([3]; strain GC 4548): 4 µg/mL (≈ 2.41 µM)
- MIC Coagulase Negative Staphylococcus (GC 4549) ([3]; strain GC 4549): 32 µg/mL (≈ 19.3 µM)
- MIC Coagulase Negative Staphylococcus (GC 4551) ([3]; strain GC 4551): 8 µg/mL (≈ 4.81 µM)
- MIC Streptococcus agalactiae (GC 4564) [4, 10]: 64 µg/mL (≈ 38.5 µM)
- MIC Streptococcus pneumoniae (ATCC 6301) ([4]; Streptococcus pneumoniae (ATCC 6301)): 32 µg/mL (≈ 19.3 µM)
- MIC Streptococcus pneumoniae (GC 1894) ([4]; Streptococcus pneumoniae (GC 1894)): 32 µg/mL (≈ 19.3 µM)
- MIC Streptococcus pneumoniae (GC 4565) [4, 11]: 64 µg/mL (≈ 38.5 µM)
- MIC Streptococcus pyogenes (GC 4563) ([4]; Streptococcus pyogenes (GC 4563)): 32 µg/mL (≈ 19.3 µM)
- MIC Streptococcus agalactiae (GC 4564) [4, 9]: 64 µg/mL (≈ 38.5 µM)
- MIC Streptococcus pneumoniae (ATCC 6301) [4, 9]: 32 µg/mL (≈ 19.3 µM)
- MIC Streptococcus pneumoniae (GC 1894) [4, 9]: 32 µg/mL (≈ 19.3 µM)
- MIC Streptococcus pneumoniae (GC 4565) [4, 9]: 64 µg/mL (≈ 38.5 µM)
- MIC Streptococcus pyogenes (GC 4563) [4, 9]: 32 µg/mL (≈ 19.3 µM)

Compound: CCCCCNC(=O)OCC1OC(OC2C(CO)OC(Oc3ccc(CC4NC(=O)C(C(C)c5ccccc5)NC(=O)CNC(=O)C(CO)NC(=O)C(C(O)C5CNC(=N)N5C5OC(CO)C(O)C(O)C5O)NC(=O)C(C(O)C5CNC(=N)N5)NC4=O)cc3)C(O)C2O)C(O)C(O)C1O (stereo not drawn) [Example 251b, γ-O-[(Pentylamino)carbonyl]-cyclo[glycyl-β-methylphenylalanyl-O-(4-O-hexopyranosylhexopyranosyl)tyrosyl-3-(2-iminoimidazolidin-4-yl)seryl-3-(3-hexopyranosyl-2-iminoimidazolidin-4-yl)serylseryl]]
- MIC Enterococcus avium (GC 4558) ([1]; Enterococcus avium (GC 4558)): 64 µg/mL (≈ 45.4 µM)
- MIC Enterococcus faecalis (ATCC 29212) [1, 5]: 64 µg/mL (≈ 45.4 µM)
- MIC Enterococcus faecalis (GC 2242) [1, 6]: 32 µg/mL (≈ 22.7 µM)
- MIC Enterococcus faecalis (GC 4552) [1, 7]: 64 µg/mL (≈ 45.4 µM)
- MIC Enterococcus faecalis (GC 4553) [1, 8]: 64 µg/mL (≈ 45.4 µM)
- MIC Enterococcus faecalis (GC 4554) ([1]; Enterococcus faecalis (GC 4554)): 64 µg/mL (≈ 45.4 µM)
- MIC Enterococcus faecium (GC 2243) ([1]; Enterococcus faecium (GC 2243)): 64 µg/mL (≈ 45.4 µM)
- MIC Enterococcus faecium (GC 4556) ([1]; Enterococcus faecium (GC 4556)): 64 µg/mL (≈ 45.4 µM)
- MIC Enterococcus faecium (GC 4557) ([1]; Enterococcus faecium (GC 4557)): 4 µg/mL (≈ 2.84 µM)
- MIC Escherichia coli (ATCC 25922) ([2]; Escherichia coli (ATCC 25922)): >64 µg/mL
- MIC Escherichia coli (GC 4559) ([2]; Escherichia coli (GC 4559)): >64 µg/mL
- MIC Escherichia coli (GC 4560) [2]: 2 µg/mL (≈ 1.42 µM)
- MIC Coagulase Negative Staphylococcus (GC 4547) ([3]; Coagulase Negative Staphylococcus (GC 4547), 18 hours at 35° C.): 8 µg/mL (≈ 5.68 µM)
- MIC Coagulase Negative Staphylococcus (GC 4548) ([3]; Coagulase Negative Staphylococcus (GC 4548), 18 hours at 35° C.): 8 µg/mL (≈ 5.68 µM)
- MIC Coagulase Negative Staphylococcus (GC 4549) ([3]; Coagulase Negative Staphylococcus (GC 4549), 18 hours at 35° C.): 4 µg/mL (≈ 2.84 µM)
- MIC Coagulase Negative Staphylococcus (GC 4551) ([3]; Coagulase Negative Staphylococcus (GC 4551), 18 hours at 35° C.): 16 µg/mL (≈ 11.4 µM)
- MIC Coagulase Negative Staphylococcus (ID-3941) ([3]; Coagulase Negative Staphylococcus (ID-3941), 18 hours at 35° C.): 4 µg/mL (≈ 2.84 µM)
- MIC Staphylococcus aureus (ATCC 29213) ([3]; Staphylococcus aureus (ATCC 29213), 18 hours at 35° C.): 16 µg/mL (≈ 11.4 µM)
- MIC Staphylococcus aureus (GC 1131) ([3]; Staphylococcus aureus (GC 1131), 18 hours at 35° C.): 8 µg/mL (≈ 5.68 µM)
- MIC Staphylococcus aureus (GC 4541) ([3]; Staphylococcus aureus (GC 4541), 18 hours at 35° C.): 8 µg/mL (≈ 5.68 µM)
- MIC Staphylococcus aureus (GC 4542) ([3]; Staphylococcus aureus (GC 4542), 18 hours at 35° C.): 8 µg/mL (≈ 5.68 µM)
- MIC Staphylococcus aureus (GC 4544) ([3]; Staphylococcus aureus (GC 4544), 18 hours at 35° C.): 16 µg/mL (≈ 11.4 µM)
- MIC Staphylococcus aureus (GC 4545) ([3]; Staphylococcus aureus (GC 4545), 18 hours at 35° C.): 8 µg/mL (≈ 5.68 µM)
- MIC Staphylococcus aureus-SMITH (GC 4543) ([3]; Staphylococcus aureus-SMITH (GC 4543), 18 hours at 35° C.): 8 µg/mL (≈ 5.68 µM)
- MIC Staphylococcus haemolyticus (GC 4546) ([3]; Staphylococcus haemolyticus (GC 4546), 18 hours at 35° C.): 8 µg/mL (≈ 5.68 µM)
- MIC Streptococcus agalactiae (GC 4564) [4, 10]: 4 µg/mL (≈ 2.84 µM)
- MIC Streptococcus pneumoniae (GC 4565) [4, 11]: 1 µg/mL (≈ 0.71 µM)
- MIC Streptococcus pyogenes (ID-3187) ([4]; Streptococcus pyogenes (ID-3187)): 2 µg/mL (≈ 1.42 µM)
